This note sets out measurements from ChEMBL document CHEMBL1201862, “PubChem BioAssay data set” (2004).

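Test compounds were applied to cells in 96-well plates for 48 hours at 5 doses. At the GI50, growth is halved.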 Activity calls are given as the source filed them. No stated cut-off is given here; in the data, active = GI50 up to about 1.1 µM and inactive = higher. Bounds are passed on as bounds.

Common to all, as to assay: NCI anticancer screen, dose series, 48 h
In assay [1] the test system is SR.
In assay [2] the test system is OVCAR-5.
The subject of assay [3] is Hs-578T.
Assay [4] has as its system SN12C.
In assay [5] the test system is HCT-15.
For assay [6], the system named is MDA-N.
Assay [7] concerns SF-295.
Assay [8] relates to RPMI-8226.
Assay [9] relates to SK-MEL-28.
The subject of assay [10] is UACC-257.
Assay [11] has as its system A498.
Assay [12] has as its system MDA-MB-231.
The subject of assay [13] is M14.
Assay [14] has as its system MOLT-4.
Assay [15] has as its system TK-10.
The test system of assay [16] is LOX IMVI.
Assay [17] relates to SK-OV-3.
Assay [18] has as its system IGROV-1.
For assay [19], the system named is MCF7.
The test system of assay [20] is OVCAR-3.

Regarding `COc1ccc(NC2C(=O)C3(C)CCC2C3(C)C)cc1` (stereo not given), the GI50 in assay [1] was 74.8 µM (inactive); in assay [2], > 100 µM (inactive); in [3], > 100 µM (inactive); in [4] it was > 100 µM (inactive); in [5] it was more than 100 µM; in assay [6] it was > 100 µM (inactive). The GI50 in [7] is > 100 µM (inactive); in [8], 52.2 µM (inactive); in assay [9], > 100 µM (inactive); in [10], 49 µM (inactive); in [11] it was > 100 µM (inactive); in assay [12] it was > 100 µM (inactive). For the same compound, the GI50 in [13] was > 100 µM (inactive); in assay [14] it was 67.8 µM (inactive); in [15], > 100 µM (inactive); in assay [16], > 100 µM (inactive); in assay [17], > 100 µM (inactive); in assay [18], > 100 µM (inactive). Besides, the GI50 in assay [19] and in assay [20] was > 100 µM (inactive) throughout.

In the case of `Cn1c(=O)sc2cc(C(=S)N3CCN(c4ccccc4)CC3)ccc21`, the GI50 in assay [1] is 6.67 µM (inactive); in [2] it was 97.1 µM (inactive); in [3] it was 55.8 µM (inactive); in assay [4], 50.6 µM (inactive); in assay [5] it was 39.4 µM; in assay [6] it was > 100 µM (inactive). Further, the GI50 is 19.9 µM (inactive) in assay [7]; > 100 µM (inactive) in assay [8]; 97.1 µM (inactive) in [9]; > 100 µM (inactive) in [10]; > 100 µM (inactive) in assay [11]; 27.6 µM (inactive) in assay [12]. Also, the GI50 in assay [13] was > 100 µM (inactive); in [14], > 100 µM (inactive); in assay [15] it was 71.9 µM (inactive); in assay [16], 53.5 µM (inactive); in assay [17], 32.3 µM (inactive); in assay [18], 46.5 µM (inactive). Moreover, the GI50 in [19] was 64.3 µM (inactive); in [20], 54.8 µM (inactive).

For the compound `O=C1OC(=O)C(=C\c2ccc3c(c2)OCO3)/C1=C/c1ccc2c(c1)OCO2`, the GI50 in assay [1] was > 52.8 µM (inactive); in [2], > 100 µM (inactive); in [3], > 88.5 µM (inactive); in assay [4] it was > 100 µM (inactive); in [5], more than 100 µM; in assay [6], > 100 µM (inactive). Further, the GI50 in [7] is > 100 µM (inactive); in assay [8], > 55.6 µM (inactive); in assay [9] it was > 100 µM (inactive); in [10] it was > 100 µM (inactive); in [11], > 100 µM (inactive); in assay [12], > 100 µM (inactive). For the same compound, the GI50 was > 100 µM (inactive) in assay [13]; 37.8 µM (inactive) in assay [14]; > 100 µM (inactive) in assay [15]; > 100 µM (inactive) in [16]; > 100 µM (inactive) in assay [17]; > 100 µM (inactive) in [18]. Also, the GI50 in assay [19] and in [20] was > 100 µM (inactive) each time.

For `c1ccc2c(c1)c1c3c(c4c(n32)=NCCN4)CCC1`, the GI50 in [1] is 17.4 µM (inactive); in [2], 36.3 µM (inactive); in [3], 26.5 µM (inactive); in [4], 18.5 µM (inactive); in [5], 15.2 µM; in assay [6] it was 20.7 µM (inactive). The GI50 in [7] is 26.9 µM (inactive); in assay [8], 24.3 µM (inactive); in assay [9], 55.3 µM (inactive); in assay [10], 38.1 µM (inactive); in [11], 28 µM (inactive); in [12], 24.2 µM (inactive). In addition, the GI50 in assay [13] was 44.3 µM (inactive); in [14], 21.3 µM (inactive); in [15], 59.7 µM (inactive); in [16], 21.1 µM (inactive); in assay [17], 37.1 µM (inactive); in [18], 27.4 µM (inactive). Besides, the GI50 in assay [19] was 24.8 µM (inactive); in assay [20], 34.8 µM (inactive).

With `CN1CC2=C(N=C(S)NC2c2ccccc2)/C(=C/c2ccccc2)C1` (stereo not given), the GI50 in assay [1] was 30.4 µM (inactive); in assay [2], > 100 µM (inactive); in assay [3] it was 40.6 µM (inactive); in assay [4], 51.8 µM (inactive); in [5], 33 µM; in assay [6], 35.7 µM (inactive). Besides, the GI50 in assay [7] was 17.9 µM (inactive); in assay [8] it was 46.6 µM (inactive); in assay [9], 27.6 µM (inactive); in assay [10] it was 91.6 µM (inactive); in assay [11], 89.7 µM (inactive); in assay [12] it was > 10 µM (inactive). Also, the GI50 in assay [13] was 25.4 µM (inactive); in assay [14], 13 µM (inactive); in assay [15] it was 26 µM (inactive); in assay [16], 29.7 µM (inactive); in [17] it was 22.2 µM (inactive); in [18] it was 24.5 µM (inactive). In addition, the GI50 in assay [19] was 40.4 µM (inactive); in [20] it was 99.8 µM (inactive).

As to `Cc1ccc(S(=O)(=O)N/N=C2/CCCOC2)cc1`, the GI50 in [1] was > 100 µM (inactive); in [2], > 100 µM (inactive); in assay [3], > 100 µM (inactive); in [4], > 100 µM (inactive); in [5], more than 100 µM; in assay [6], > 100 µM (inactive). Further, the GI50 in assay [7], in assay [8], in assay [9], in assay [10], in assay [11] and in assay [12] was > 100 µM (inactive) throughout. Besides, the GI50 in [13], in assay [14], in [15], in assay [16], in [17] and in assay [18] was > 100 µM (inactive) throughout. Further, the GI50 in assay [19] and in assay [20] was > 100 µM (inactive) throughout.

Consider `O=C(NNC(=O)c1ccco1)c1ccco1`, for which the GI50 in assay [1] was > 100 µM (inactive); in assay [2], > 100 µM (inactive); in [3], > 100 µM (inactive); in [4], > 100 µM (inactive); in [5], more than 100 µM; in [6] it was > 100 µM (inactive). The GI50 in [7], in assay [8], in assay [9], in [10], in [11] and in assay [12] was > 100 µM (inactive) in each case. Further, the GI50 in assay [13], in assay [14], in assay [15], in assay [16], in assay [17] and in assay [18] was > 100 µM (inactive) throughout. Moreover, the GI50 in [19] and in assay [20] was > 100 µM (inactive) in each case.

Consider `CC1=NN(c2nc(N)nc(/C(C#N)=C\c3ccc([N+](=O)[O-])s3)n2)C(C)(C)C1`, for which the GI50 in assay [1] is 0.018 µM (active); in [2] it was 3.46 µM (inactive); in [3], 0.783 µM (active); in [4], 0.363 µM (active); in assay [5], 0.108 µM; in assay [6], 0.34 µM (active). In addition, the GI50 was 2.96 µM (inactive) in [7]; 0.0218 µM (active) in assay [8]; 0.383 µM (active) in assay [9]; 0.211 µM (active) in assay [10]; 7.78 µM (inactive) in [11]; 0.22 µM (active) in [12]. Besides, the GI50 in assay [13] was 0.298 µM (active); in [14], 0.138 µM (active); in assay [15] it was 0.507 µM (active); in [16] it was 0.157 µM (active); in [17] it was 8.99 µM (inactive); in [18] it was 0.284 µM (active). For the same compound, the GI50 in assay [19] is 0.142 µM (active); in [20] it was 0.124 µM (active).

In the case of `CC(Cl)(CCC(Cl)C(C)(C)Cl)C(=O)CBr` (stereo not given), the GI50 was 1.8 µM (inactive) in [1]; 17.5 µM (inactive) in assay [2]; 17.4 µM (inactive) in [3]; 14.7 µM (inactive) in assay [4]; 8.28 µM in assay [5]; 8.2 µM (inactive) in assay [6]. The GI50 in [7] was 21.4 µM (inactive); in assay [8], 2.25 µM (inactive); in assay [9], 16.7 µM (inactive); in [10] it was 12.4 µM (inactive); in assay [11], 17.2 µM (inactive); in assay [12] it was 11.1 µM (inactive). For the same compound, the GI50 in assay [13] was 9.79 µM (inactive); in [14], 1.21 µM (inactive); in [15], 11.8 µM (inactive); in [16], 2.06 µM (inactive); in assay [17] it was 13.4 µM (inactive); in [18], 13.3 µM (inactive). Moreover, the values for the GI50 in assay [19] and in assay [20] were 13 µM (inactive) and 15.4 µM (inactive), respectively.

Turning to `COC1=C(C)C(=O)c2c(c(COC(N)=O)c3n2CC2C3N2C)C1=O` (stereo not given), the GI50 in assay [1] is < 0.01 µM (active); in assay [2], 0.0313 µM (active); in assay [3] it was 0.16 µM (active); in assay [4], 0.0132 µM (active); in assay [5], less than 0.0118 µM; in [6], 0.019 µM (active). For the same compound, the GI50 is < 0.01 µM (active) in assay [7]; < 0.0154 µM (active) in assay [8]; 0.0502 µM (active) in assay [9]; < 0.0107 µM (active) in assay [10]; 0.0519 µM (active) in [11]; 0.168 µM (active) in assay [12]. Moreover, the GI50 is < 0.01 µM (active) in [13]; < 0.0147 µM (active) in assay [14]; 0.0117 µM (active) in [15]; < 0.01 µM (active) in [16]; < 0.0156 µM (active) in assay [17]; 0.0425 µM (active) in assay [18]. Further, the GI50 in assay [19] was < 0.01 µM (active); in [20] it was 0.0256 µM (active).
